# Values of other authors in US20160114057A1, “MODULAR PROTEIN DRUG CONJUGATE THERAPEUTIC” (ZYMEWORKS INC., priority 2013, published 2016).
# Where “and” joins values, the source holds several entries; their conditions need not be identical. Identical values can stand only once. Like-named read-outs stand apart in the source and are kept apart here. *1 amine or outer side, *2 acyl side, *3 side chain or, on linkers, in order; H or OH if unused. Where a SMILES comes first, the peptide text is derived from it. Bridges are numbered along the chain shown (N, C = ends). [ ]: non-standard residue; d: D form. The star is where a group is joined. X2 = CC[C@@H](C)C[C@H](N[*:1])C(=O)[*:2]; X1 = CC[C@H](C)CC(N[*:1])C(=O)[*:2]; d(aThr) = C[C@@H](O)[C@@H](N)C(=O)O; NMe2Val = CC(C)[C@@H](C(=O)*)N(C)C; NMeT = CN[C@H](C(=O)O)[C@@H](C)O; Suc = O=C(CCC(=O)[*:2])[*:1]; NMeV = CN[C@H](C(=O)O)C(C)C; NHBn = c1ccc(CN*)cc1; Dha = C=C(N)C(=O)O
# Experiments:
# [1] = tested on: NCI tumor panel (60 cell line); conditions: for IC50: range over cell lines
# [2] = human, in vivo
# [3] = KB-31 (melanoma)
# [4] = in vivo
# [5] = not given; remark: listed apart in the source
compound,measurement,setting,value
CC(C)[C@H](NC(=O)[C@H](C(C)C)N(C)C)C(=O)N(C)[C@H](C(=O)N1CCC[C@H]1C(=O)N1CCC[C@H]1C(=O)NCc1ccccc1)C(C)C [Cemadotin] (NMe2Val-V[NMeV]PP-NHBn),activity in NCI tumor panel (in words),[1],"active in breast,"
same,Toxicity (in words),,"hypertension,"
C=C(Cl)/C=C/[C@@H](O)CC(=C)C[C@H]1O[C@@H]2[C@H](C)[C@@H](OC(=O)C[C@@H]3C[C@H](OC(C)=O)C[C@@]4(C[C@@](C)(O)C[C@H](CC(=C)[C@@H](C)C(OC(C)=O)[C@H](C)C(=O)C[C@@H]5C[C@H](OC)C[C@@]6(C[C@@H](O)C[C@H](/C=C\CCC[C@H]7O[C@](O)(C[C@H](O)[C@H]7C)[C@H]2O)O6)O5)O4)O3)[C@@H]1O (stereo partly shown) [Spongistatins (1-9)],activity in NCI tumor panel (in words),[1],Most potent
same,GI50,"[1]; NCI panel cell line, read-out: mean GI50",0.1 nM
CCCCCCCCCCCCCCCC(=O)OC1CC(C(C)C(OC)/C(C)=C/C=C/C(C)=C/c2coc(C)n2)OC(=O)C2OC2CC2CC(=O)OC(C2)C(C)/C=C/C2OC21C (stereo not shown) [Palmitoylrhizoxin],Toxicity (in words),,binds LDL; less
CC/C=C\C=C/C(=O)N/C=C/CC1CC2CC(O)CC(Cc3cccc(O)c3C(=O)O1)O2 (stereo not shown) [Apicularen A],IC50,various tumor cell lines,IC50's of 0.1 to 3 ng/mL
C=C1C[C@@H]2CCO[C@H]3[C@@H]4O[C@H]5CC[C@H](CC(=O)O[C@@H]6[C@@H](C)[C@@H]7O[C@@H]8C[C@]9(C[C@@H]%10O[C@]%11(C[C@H](C)[C@@H]%12O[C@H](CC(=O)CCO)[C@H](O)C[C@@H]%12O%11)C[C@H](C)[C@@H]%10O9)O[C@@H]8C[C@@H]7O[C@H]6C[C@H]6O[C@@H](CC[C@@H]1O2)C[C@@H](C)C6=C)O[C@@H]5[C@@H]1OCC[C@H]3O[C@@H]14 [Isohomo-halichondrin B],IC50,[1]; NCI tumor panel,~0.1 nM
C/C(=C\c1csc(C)n1)[C@@H]1C[C@@H]2O[C@]2(C)CCC[C@H](C)[C@H](O)[C@@H](C)C(=O)C(C)(C)[C@@H](O)CC(=O)N1 [BMS-247550],clinical responses (in words),[2],tumor (objective
same,Toxicity (in words),,sever toxicity
C/C(=C\c1csc(C)n1)[C@@H]1C[C@@H]2O[C@]2(C)CCC[C@H](C)[C@H](O)[C@@H](C)C(=O)C(C)(C)[C@@H](O)CC(=O)O1 [Epothione B],IC50,MCF-7 (breast),0.18 nM
same,IC50,MCF-7/ADR,2.92 nM
same,IC50,[3],0.19 nM
same,IC50,HCT-116,0.42 nM
same,activity in cell culture (in words),various tumor cell lines,broad activity
same,clinical responses (in words),[2],partial
same,t1/2,[4],2.5 h
"COc1ccc(C[C@H]2NC(=O)/C=C/C[C@@H]([C@H](C)[C@H]3O[C@@H]3c3ccccc3)OC(=O)[C@H](CC(C)C)OC(=O)C(C)(C)CNC2=O)cc1Cl [Cryptophycin analogs (including 52, 55 and others)]",IC50,"various tumor cell lines; broad activity (lung, breast, colon, leukemia), read-out: IC50",0.002 to 0.04 nM
same,activity against multi-drug/drug resistant cell lines (in words),MDR cell lines,pM; active against
Didemnin B,activity against multi-drug/drug resistant cell lines (in words),MDR cell lines,Not potent against
same,Toxicity (in words),,cardiotoxicity;
same,MTD,[5]; in vivo,6.3 mg/Kg; toxicity
same,t1/2,[4],cleared (t1/2 4.8 hrs
C=C(C)[C@@H]1NC(=O)[C@@H](NC)[C@@H](O)c2cc(Cl)c(O)c(c2)O[C@](C)(CC)[C@@H](C(=O)N2CC=C[C@H]2C(=O)N/C(C(=O)N/C(=C/C(=O)O)C(=O)O)=C(\C)CC)NC1=O [Phomopsin A],activity in cell culture (in words),various tumor cell lines,potent anticancer
C=C(Cl)/C=C/[C@@H](O)CC(=C)C[C@H]1O[C@@H]2[C@H](C)[C@@H](OC(=O)C[C@@H]3C[C@H](OC(C)=O)C[C@@]4(C[C@@](C)(O)C[C@H](CC(=C)[C@@H](C)C(OC(C)=O)[C@H](C)C(=O)C[C@@H]5C[C@H](OC)C[C@@]6(C[C@@H](O)C[C@H](/C=C\CCC[C@H]7O[C@](O)(C[C@H](O)[C@H]7C)[C@H]2O)O6)O5)O4)O3)[C@@H]1O (stereo partly shown) [Spongistatin-1],GI50,"[1]; NCI tumor panel, values or ends of the range over cell lines, read-out: GI50",≥ 0.025 nM and ≤ 0.035 nM
Epothilone D,IC50,[3],0.19 nM
same,IC50,HCT-116,0.42 nM
same,activity in cell culture (in words),various tumor cell lines,broad activity
same,Toxicity (in words),,emesis and anemia;
same,t1/2,[4],t1/2 of 5-10 hrs.
CC[C@H](C)[C@@H]([C@@H](CC(=O)N1CCC[C@H]1[C@H](OC)[C@@H](C)C(=O)N[C@@H](Cc1ccccc1)c1nccs1)OC)N(C)C(=O)[C@@H](NC(=O)[C@H](C(C)C)N(C)C)C(C)C [Dolastatin-10],concentration with myelotoxicity,in vivo,greater than 0.3 pM)
CN[C@H](C(=O)N[C@H](C(=O)N(C)[C@H](/C=C(\C)C(=O)O)C(C)C)C(C)(C)C)C(C)(C)c1c[nH]c2ccccc12 [Hemiasterlins A & B and analogs],IC50,P388,0.4 ng/mL P388
same,IC50,MCF-7 (breast),0.3 to 3 nM
COc1ccc(C[C@H]2NC(=O)/C=C/C[C@@H]([C@H](C)[C@H]3O[C@@H]3c3ccccc3)OC(=O)[C@H](CC(C)C)OC(=O)CCNC2=O)cc1 [Arenastatin A analogs],Activity (IC50),KB; KB (nasopharyngeal),0.005 ng/mL
same,IC50,"KB; KB, read-out: Activity (IC50)",8.7 nM
COc1cc([C@@H]2c3cc4c(cc3[C@H](O)[C@H]3COC(=O)[C@H]23)OCO4)cc(OC)c1OC [Podophyllotoxin],activity in cell culture (in words),various tumor cell lines,in μM range
C=C1NC(=O)[C@H]([C@@H](C)CC)NC(=O)[C@@H]2CSSC[C@H](NC(=O)CCC(=O)O)C(=O)N[C@H](Cc3ccccc3)C(=O)N[C@H](C)C(=O)NC(C[C@@H](C)CC)C(=O)N[C@@H](C(=O)N[C@H](Cc3ccccc3)C(=O)N3CCC[C@H]3C(=O)N2)[C@@H](C)OC(=O)[C@H](CO)NC(=O)[C@H]([C@@H](C)OC)N(C)C(=O)[C@@H](C(C)C)NC(=O)[C@H](C[C@H](C)CC)NC1=O (stereo partly shown) [Vitilevuamide] (Suc-C[dF][dA][X1][d(aThr)][dF]PCI[Dha][X2][dV][NMeT](Me)S; disulfide 1-8; ester 5-C),IC50,"various tumor cell lines; panel of tumor cell lines HCT116, A549, SK-MEL-5, A498 cells, read-out: IC50",6 to 311 nM
C/C(=C\c1csc(CN)n1)[C@@H]1C[C@@H]2O[C@]2(C)CCC[C@H](C)[C@H](O)[C@@H](C)C(=O)C(C)(C)[C@@H](O)CC(=O)O1 [BMS-310705],IC50,"various tumor cell lines; broad activity, read-out: IC50",0.7 to 10 nM
same,Toxicity (in words),in vivo,adverse events
same,t1/2,[4],3.5 hrs; improved
COc1cc2cc(c1Cl)N(C)C(=O)C[C@H](OC(=O)[C@H](C)N(C)C(C)=O)[C@]1(C)O[C@H]1[C@H](C)[C@@H]1C[C@@](O)(NC(=O)O1)[C@H](OC)/C=C/C=C(\C)C2 [Maytansine],Toxicity (in words),,severe toxicity
Halichondrin B,Toxicity (in words),in vivo,myelotoxicity dose
C=C1C[C@@H]2C[C@@H]3C[C@@H](O)C[C@@H](O3)c3coc(n3)/C=C/C[C@H]3O[C@@H](/C(C)=C/c4coc(C[C@]5(O)CC(OC)C[C@H]([C@H](O)/C=C(C)/C=C/C(C/C=C/Br)OC)O5)n4)[C@H](C)[C@@H](OC(=O)/C=C\C[C@@H](C1)O2)[C@H]3C (stereo partly shown) [Phorboxazole A],IC50,[1]; NCI tumor panel,1 to 10 nM
COc1ccc(C[C@H]2NC(=O)/C=C/C[C@@H]([C@H](C)[C@@H](O)[C@@H](Cl)c3ccccc3)OC(=O)[C@H](CC(C)C)OC(=O)[C@H](C)CNC2=O)cc1Cl [Cryptophycin 8],activity in cell culture (in words),various tumor cell lines,broad spectrum
CC[C@H](C)[C@@H]([C@@H](CC(=O)N1CCC[C@H]1[C@H](OC)[C@@H](C)C(=O)NCCc1ccccc1)OC)N(C)C(=O)[C@@H](NC(=O)[C@H](C(C)C)N(C)C)C(C)C [soblidotin],inhibition,"various tumor cell lines; cell culture: colon, melanoma, M5076 tumors, P388, dose not reported",75-85% inhibition
same,MTD,[5]; IV,MTD was 1.8 mg/Kg
CC(=O)O[C@H]1C(=O)[C@@]2(C)[C@H]([C@H](OC(=O)c3ccccc3)[C@]3(O)C[C@H](OC(=O)[C@H](O)[C@@H](NC(=O)c4ccccc4)c4ccccc4)C(C)=C1C3(C)C)[C@]1(OC(C)=O)CO[C@@H]1C[C@@H]2O [Taxol],Toxicity (in words),in vivo,severe toxicity
CO[C@@H](/C(C)=C/C=C/C(C)=C/c1coc(C)n1)[C@@H](C)[C@@H]1C[C@H](O)[C@@]2(C)O[C@@H]2/C=C/[C@@H](C)[C@H]2C[C@H](CC(=O)O2)C[C@H]2O[C@H]2C(=O)O1 [Rhizoxin],Toxicity (in words),,Rapid Drug
CO[C@]12C=C[C@](C)(O1)[C@@H](OC(=O)/C=C/c1cn(C)cn1)C[C@H]1C(C)=CC[C@H](C(C)C)[C@H]1/C=C\2CO[C@@H]1OC[C@@H](O)[C@@H](O)[C@@H]1OC(C)=O [Eleutherobins],activity against multi-drug/drug resistant cell lines (in words),MDR cell lines,taxol; not effective
CCCC1(O)C(O)C(C)C/C=C/C=C/C(CC(C)O)CCC2OC3(CCC(C)C(C(C)C(O)CC)O3)C(C)C(OC(=O)/C=C/C(C)C(O)C(C)C(O)C(OC3CCC(O)C(C)O3)C(O)C(O)C1O)C2C (stereo not shown) [IB-96212],IC50,P388,0.1 P388 ng/mL
C=CC[C@@H](CC/C(C)=C/C=C/CC/C=C\[C@@H]1CSC([C@@H]2C[C@@H]2C)=N1)OC [Curacin A and analogs],IC50,"various tumor cell lines; broad activity (cancer cell lines), read-out: Activity (IC50)",1 to 29 nM
CCCC1C(=O)O[C@H](/C(C)=C/c2csc(C)n2)C[C@@H]2O[C@]2(C)CCC[C@H](C)[C@H](O)[C@@H](C)C(=O)C(C)(C)[C@H]1O (stereo partly shown) [ZK-EPO],activity against multi-drug/drug resistant cell lines (in words),MDR cell lines,active in drug
C/C(=C\c1csc(C)n1)[C@@H]1C[C@@H]2O[C@@H]2CCC[C@H](C)[C@H](O)[C@@H](C)C(=O)C(C)(C)[C@@H](O)CC(=O)O1 [Epothilone A],IC50,MCF-7 (breast),1.5 nM
same,IC50,MCF-7/ADR,27.1 nM
same,IC50,[3],2.1 nM
same,IC50,HCT-116,3.2 nM
